Data published in patent US11584775B2, “C4-modified oleanolic acid derivatives for inhibition of IL-17 and other uses” (REATA PHARMACEUTICALS, INC., priority 2015, dated 2023).

What was measured:
hIL17 = test: IL-17 release from differentiated primary human T-cells (IL-17A HTRF assay); assay type: cell-based; conditions: inhibition of IL-17A levels; primary human CD4+ T cells differentiated into Th17 cells, 46-hour incubation
Description: D. IL-17 Release from Differentiated Primary Human T-Cells and Cell Viability
Primary human cryopreserved CD4+ T Cells (Lonza, donor #0000402103) were plated in Lymphocyte Growth Medium-3 (LGM-3, Lonza) according to the manufacturer's recommendations, and allowed to recover for approximately 3 hours at 37° C. with 5% CO2 in a humidified atmosphere. After the recovery step, cells were collected by centrifugation and re-plated in 96-well plates at a density of ˜140,000 cells per well in LGM-3 medium that contained DMSO (vehicle) or test compound (2-500 nM or 4-1000 nM concentration range). Triplicate wells were plated for each test condition. DMSO (final concentration ≤0.1%) was used as the vehicle. Immediately after plating, CD4+ T cells were activated by adding Dynabeads Human T-Activator CD3/CD28 (Life Technologies; bead-to-cell ratio of 1:2.5) and differentiated into Th17 cells by adding a mixture of the following cytokines: transforming growth factor-β (TGF-β, 5 ng/mL), IL-6 (20 ng/mL), IL-23 (20 ng/mL), and […] (10 ng/mL). Undifferentiated control cells received only cytokine IL-2 (50 ng/mL). All human recombinant cytokines were purchased from R&D Systems. Following a 46-hour incubation at 37° C. with 5% CO2 in a humidified atmosphere, the plates were centrifuged for 3 minutes at 250×g, and half of the supernatant was transferred to a new plate to be used in the IL-17A assay (see below). Cell viability was assessed in the original plate using the CyQuant Direct Assay (Life Technologies). CyQuant values from test compound samples were normalized to those from DMSO-treated samples. The concentration of IL-17A in the supernatant was measured using the Homogeneous Time-Resolved Fluorescence (HTRF) assay (Cisbio Bioassays) according to the manufacturer's protocol. The assay was performed at room temperature in low volume, solid white 384-well plates (Greiner Bio-One). Samples and standards (serially-diluted human recombinant IL-17A (0 to 5,000 pg/mL concentration range; Cisbio Bioassays) were incubated with the anti-human IL-17A antibody conjugate for 16 hours and fluorescence was measured using a Pherastar FS microplate reader (BMG Labtech) in the HTRF mode (excitation at 337 nm and emission at 665 nm and 620 nm). IL-17A concentrations were assessed in duplicate aliquots of supernatant from each well resulting in a total of six readings per test condition. The 665 nm/620 nm signal ratio was calculated and the concentration of IL-17A in each sample was determined by interpolation from the standard curve. IL-17A values from test compound samples were normalized to those from DMSO-treated samples. Data were analyzed using GraphPad Prism version 6.00 for Windows (GraphPad Software, La Jolla Calif. USA). A non-linear regression analysis with log (inhibitor) vs. normalized response using a variable slope was applied to fit the data and determine the IC50 values for inhibition of IL-17A levels and cell viability.

human RORγ = molecular target: T1, human RORγ (Homo sapiens, UniProt P51449); test: RORγ assay (GAL4-RORγ hybrid luciferase reporter, inverse-agonist activity); assay type: cell-based; conditions: GAL4-RORγ hybrid reporter cells, 23 hours
T1 sequence (P51449 269-508 limits assumed): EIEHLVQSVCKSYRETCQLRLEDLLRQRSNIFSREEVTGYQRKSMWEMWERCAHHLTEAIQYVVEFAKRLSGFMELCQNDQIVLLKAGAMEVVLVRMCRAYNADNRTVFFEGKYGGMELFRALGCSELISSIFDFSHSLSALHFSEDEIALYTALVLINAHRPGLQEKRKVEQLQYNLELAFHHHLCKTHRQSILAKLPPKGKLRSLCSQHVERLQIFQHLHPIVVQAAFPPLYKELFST
Source text: C. RORγ Assay and Cell Viability
The RORγ assay system was purchased from Indigo Biosciences. This nuclear receptor assay utilizes a human cell line that has been engineered to express a hybrid form of the Human RAR-related Orphan Receptor Gamma (RORγ) at high levels. The N-terminal DNA binding domain (DBD) of the native RORγ receptor was substituted with the yeast GAL4-DBD to generate the GAL4-RORγ hybrid nuclear receptor. The reporter cell line is transfected with a plasmid that encodes the beetle luciferase gene under the control of the GAL4 upstream activating sequence (UAS). GAL4 binds to the UAS and increases transcription of downstream target genes. […] To assess the RORγ inverse-agonist activity of the test compounds, reporter cells were plated in white 96-well plates in triplicate and were treated with DMSO (vehicle) or test compound (concentration ranges of 0.4-200 nM or 2-1000 nM) at 37° C. with 5% CO2 in a humidified atmosphere for 23 hours. After this incubation, luciferin was added to the wells and luciferase activity was determined by measuring the luminescence signal using a BMG Pherastar microplate reader. Viability was determined using the Live Cell Multiplex Assay (Indigo Biosciences). Values from test compound samples were normalized to those from DMSO-treated samples. Data were analyzed using GraphPad Prism version 6.00 for Windows (GraphPad Software, La Jolla Calif. USA). A non-linear regression analysis with log (inhibitor) vs. normalized response using a variable slope was applied to fit the data and determine the IC50 values for inhibition of RORγ and cell viability.

NRF2 = test: AREc32 luciferase reporter assay; assay type: cell-based, human; conditions: EC2×: concentration required to increase GST ARE Luciferase reporter activity by 2-fold; AREc32 cells, 19 hours
Source text: B. AREc32 Luciferase Reporter Assay
The AREc32 luciferase reporter assay allows for quantitative assessment of the endogenous activity of the Nrf2 transcription factor in cultured mammalian cells. AREc32 cells are derived from MCF-7 human breast carcinoma cells that were stably transfected with a reporter construct that contains the firefly luciferase gene located downstream of eight copies of the rat GSTA2 antioxidant response element (ARE) sequence (Wang et al., 2006; CXR Biosciences). Active NRF2 binds to the ARE sequences and increases expression of the firefly luciferase gene. To assess the NRF2-activating potential of the test compounds, AREc32 cells were plated in black 96-well plates at a density of 20,000 cells per well in triplicate in DMEM+10% FBS+0.8 mg/mL Geneticin and incubated at 37° C. with 5% CO2 in a humidified atmosphere. The next day, cells were treated with DMSO (vehicle) or test compound (concentration ranges of 0.4-200 nM or 2-1000 nM) for 19 hours. Luciferase activity was determined using the ONE-Glo Luciferase assay (Promega). The luminescence signal was measured on a BMG Pherastar microplate reader. The mean luminescence value from test compound-treated wells was normalized to that from DMSO-treated wells and was represented as fold-induction. Data were analyzed using GraphPad Prism version 6.00 for Windows, GraphPad Software, La Jolla Calif. USA. A non-linear regression curve with log (agonist) vs. response using a variable slope was used to fit the data. Where applicable, a maximum threshold value of 50-fold over DMSO was set. EC2× values were interpolated from the curve. EC2× corresponds to the concentration of test compound required to increase GST ARE Luciferase reporter activity by 2-fold.

[1] = tested on: IFNγ-induced Nitric Oxide production; test: Nitric oxide production assay in RAW 264.7 mouse macrophages; assay type: cell-based; conditions: RAW264.7, suppression of IFNγ-induced NO production normalized to cell viability (WST-1), RAW 264.7, 24 hours IFNγ
Description: A. Nitric Oxide Production Assay and Cell Viability
RAW 264.7 mouse macrophages were plated in 96-well plates at a density of 30,000 cells per well in triplicate in RPMI 1640+0.5% FBS and incubated at 37° C. with 5% CO2 in a humidified atmosphere. The next day, cells were pre-treated with DMSO (vehicle) or test compound (concentration ranges of 0.4-200 nM or 2-1000 nM) for 2 hours and then treated with recombinant mouse IFNγ (R&D Systems) for 24 hours. Nitric oxide concentration in media was determined using the Griess reagent system (Promega). Cell viability was determined using WST-1 reagent (Roche). Values from test compound samples were normalized to those from DMSO/IFNγ-treated samples. IC50 values were determined based on the suppression of IFNγ-induced Nitric Oxide production normalized to cell viability.

| Compound | IC50 (hIL17) | IC50 (human RORγ) | EC2x: concentration giving 2-fold induction of ARE luciferase reporter (NRF2) | IC50 [1] |
| --- | --- | --- | --- | --- |
| COC(=O)[C@]12CCC(C)(C)C[C@H]1[C@H]1C(=O)C=C3[C@@]4(C)C=C(C#N)C(=O)[C@@](C)(COC(C)=O)[C@@H]4CC[C@@]3(C)[C@]1(C)CC2 [Compound T8, methyl (4aS,6aR,6bS,8aR,9R,12aS,14aR,14bS)-9-(acetoxymethyl)-11-cyano-2,2,6a,6b,9,12a-hexamethyl-10,14-dioxo-1,3,4,5,6,6a,6b,7,8,8a,9,10,12a,14,14a,14b-hexadecahydropicene-4a(2H)-carboxylate] | 0.024 µM | 0.109 µM | 276 nM | 0.0746 µM |
| COC(=O)[C@]12CCC(C)(C)C[C@H]1[C@H]1C(=O)C=C3[C@@]4(C)C=C(C#N)C(=O)[C@@](C)(COC(=O)c5ccccc5)[C@@H]4CC[C@@]3(C)[C@]1(C)CC2 [Compound T9, methyl (4aS,6aR,6bS,8aR,9R,12aS,14aR,14bS)-9-((benzoyloxy)methyl)-11-cyano-2,2,6a,6b,9,12a-hexamethyl-10,14-dioxo-1,3,4,5,6,6a,6b,7,8,8a,9,10,12a,14,14a,14b-hexadecahydropicene-4a(2H)-carboxylate] | 0.037 µM | 0.361 µM | 962 nM | 0.191 µM |
| COC(=O)[C@]12CCC(C)(C)C[C@H]1[C@H]1C(=O)C=C3[C@@]4(C)C=C(C#N)C(=O)[C@@](C)(NC(=O)OC(C)(C)C)[C@@H]4CC[C@@]3(C)[C@]1(C)CC2 [Compound T10] | 0.204 µM | 1.07 µM | >1000 nM | 0.414 µM |
| COC(=O)[C@]12CCC(C)(C)C[C@H]1[C@H]1C(=O)C=C3[C@@]4(C)C=C(C#N)C(=O)[C@@](C)(N)[C@@H]4CC[C@@]3(C)[C@]1(C)CC2 [Compound T11, methyl (4aS,6aR,6bS,8aR,9S,12aS,14aR,14bS)-9-amino-11-cyano-2,2,6a,6b,9,12a-hexamethyl-10,14-dioxo-1,3,4,5,6,6a,6b,7,8,8a,9,10,12a,14,14a,14b-hexadecahydropicene-4a(2H)-carboxylate] | 0.075 µM | 0.146 µM | 477 nM | 0.601 µM |
| COC(=O)[C@]12CCC(C)(C)C[C@H]1[C@H]1C(=O)C=C3[C@@]4(C)C=C(C#N)C(=O)[C@@](C)(NC(C)=O)[C@@H]4CC[C@@]3(C)[C@]1(C)CC2 [Compound T12, methyl (4aS,6aR,6bS,8aR,9S,12aS,14aR,14bS)-9-acetamido-11-cyano-2,2,6a,6b,9,12a-hexamethyl-10,14-dioxo-1,3,4,5,6,6a,6b,7,8,8a,9,10,12a,14,14a,14b-hexadecahydropicene-4a(2H)-carboxylate] | 0.081 µM | 0.419 µM | >1000 nM | > 1 µM |
| CNC(=O)[C@]1(C)C(=O)C(C#N)=C[C@]2(C)C3=CC(=O)[C@@H]4[C@@H]5CC(C)(C)CC[C@]5(C(=O)OC)CC[C@@]4(C)[C@]3(C)CC[C@@H]12 [Compound T13, methyl (4aS,6aR,6bS,8aR,9S,12aS,14aR,14bS)-11-cyano-2,2,6a,6b,9,12a-hexamethyl-9-(methylcarbamoyl)-10,14-dioxo-1,3,4,5,6,6a,6b,7,8,8a,9,10,12a,14,14a,14b-hexadecahydropicene-4a(2H)-carboxylate] | 0.049 µM | 0.161 µM | 567 nM | 0.295 µM |
| COC(=O)[C@]12CCC(C)(C)C[C@H]1[C@H]1C(=O)C=C3[C@@]4(C)C=C(C#N)C(=O)[C@@](C)(C(=O)N(C)C)[C@@H]4CC[C@@]3(C)[C@]1(C)CC2 [Compound T14] | 0.046 µM | 0.139 µM | >1000 nM | 0.165 µM |
| COC(=O)[C@]12CCC(C)(C)C[C@H]1[C@H]1C(=O)C=C3[C@@]4(C)C=C(C#N)C(=O)[C@@](C)(C(N)=O)[C@@H]4CC[C@@]3(C)[C@]1(C)CC2 [Compound T15, methyl (4aS,6aR,6bS,8aR,9S,12aS,14aR,14bS)-9-carbamoyl-11-cyano-2,2,6a,6b,9,12a-hexamethyl-10,14-dioxo-1,3,4,5,6,6a,6b,7,8,8a,9,10,12a,14,14a,14b-hexadecahydropicene-4a(2H)-carboxylate] | 0.065 µM | 0.206 µM | 612 nM | 0.714 µM |
